Data published in US10131635B2, “Compositions and methods of using the compositions for plaque softening” (ALUMEND, LLC, priority 2013, dated 2018).
“Also recorded” adds a separate entry of the source.

Experiments:
[1] = Storage stability of the naphthalimide dimer (solution and powder); assay type: physicochemical
Excerpt: A preparative HPLC approach was used to isolate and specifically purify the compound of formula (V) dimer from the compound of formula (V) naphthalimide product produced from the ethanol crystallization. The HPLC method used was based on the purity method outlined above; however, method modifications were made to replace acetonitrile with ethanol and TFA with acetic acid in the mobile phase. The preparative separation utilized a C18 column (X-bridge, 10 μm, 19×250 mm, Waters). The mobile phase consisted of mobile phase A, 0.1% acetic acid (aq), and mobile phase B, 9:1 ethanol:water (0.1% v/v acetic acid). The column was pre-equilibrated at a starting mobile phase of 95% A:5% B for 20 minutes, at the start of the gradient was a 2 minute hold followed by a linear gradient to 90% B at 40 minutes and a 10 minute hold. An injection volume of 8.5 mL (12 mg/mL purified compound of formula (V)) and flow rate of 8.5 mL/minute were used as well as a detector wavelength of 440 nm. The compound of formula (V) fractions were collected and analyzed using the analytical purity method presented above. Fractions meeting a minimum purity criterion were combined and the solvent driven off by rotovapping the solution to dryness. […] Finally the product was quantitatively transferred from the round bottom flask to a freeze drying flask by dissolving the product in a minimal amount of deionized water. […]

[2] = tested on: hard and soft plaque of common and lower femoral artery; assay: Tissue immersion: hardness of plaque by manipulation with a forcep; design: species or system human; conditions: PBS pH 7.4
Excerpt: A sample of human tissue from the common and lower femoral artery was received. It was stored in saline and refrigerated until use. Based upon visual and tactile observations, the arteries were approximately 7-8 mm in diameter and contained evidence of both hard and soft plaque. The soft plaque has a yellow fatty appearance that is distinguishable from the vessel wall. The hard plaque presents itself as hard pieces of material that can be pulled (with a forceps) from the soft plaque. Sections of the artery suitable for catheter work were segregated and stored in phosphate buffered saline (PBS), pH=7.4. From the remaining arterial sections, pieces of tissue containing both hard and soft plaque were removed. These pieces were either placed in a solution of PBS (pH=7.4), or dimeric naphthalimide, such as a compound of formula (V) (which is in PBS, pH=7.4). Prior to immersion in either solution the relative hardness of the plaque was evaluated via manual manipulation with a forcep. After a 5 minute soak in solution (typical exposure time), no difference in the samples soaked in PBS was noticed (control). […] The samples were then left in their respective solutions for an additional 90 minutes.

[3] = tested on: plaque in diseased arteries from limb amputations; assay: Plaque penetration: diseased arteries soaked with composition, balloon and light activation, visual and histological examination; design: species or system human; conditions: 2 mg/mL in PBS pH 7.4, 5 minute soak
Description: Diseased arteries were obtained from limb amputations (leg) due to advanced Periperal Arterial Disease (PAD) from patients at a regional hospital. The received arteries were evaluated and chosen such that the diseased section was of reasonable size to accommodate the treatment catheter balloon length being used. The catheter balloon diameter used was also matched to the diameter of the artery and capable of achieving a 1:1.25 (ratio of artery diameter to balloon diameter) overstretch. The artery was laid in a petri dish and an angioplasty balloon was inserted and inflated for 60 seconds to impart the desired overstretch. While the angioplasty balloon was inflated a permanent marker was used to define the treatment zone (where the overstretch was imparted by the balloon) on the outer surface of the artery. The angioplasty balloon was deflated and removed. The inner lumen of the diseased artery was exposed to a plaque softening composition comprising a compound of formula (V) naphthalimide formulation (2 mg/mL in phosphate buffered saline, pH=7.4) for a period of 5 minutes. For the purpose of filling the artery, one end was clamped, the artery was held upright and a syringe was used to dispense the naphthalimide solution until the inner lumen was filled. The open end of the artery was then clamped and the soaking period of 5 minutes commenced. […] Arteries were cut open lengthwise and the treated section was evaluated by visual examination.
Prior to cutting the artery for visual examination samples from the treated and untreated sections were collected and preserved for histological examination. […] After this time, samples were stored in a −80° C. freezer until ready for further analysis. […] The crystalline nature of hard plaque is readily visible without staining. Under this magnification the crystalline structure of the calcific plaque was readily visible, as shown in FIG. 8 the dark area between the two lighter colored areas of the media. […]

artery = assay: Artery treated with composition, angioplasty and photoactivation: fissure observation; design: species or system human
Description: The tissue was an artery approximately 7.4 mm in diameter. An Ultra-thin SDS 8 mm×30 mm catheter was used to dilate the artery to 7.55 mm (approximately a 2% overstretch). A fissure or a possible dissection running down the length of the tissue sample was observed.
A section (6.5 cm in length) of artery was exposed to the composition for 5 minutes. An 80 mm catheter was used to impart a 25% overstretch to the artery. The angioplasty was followed by photoactivation at 1800 mW for 60 seconds using the same 80 mm catheter with a 60 mm light fiber centered in the catheter.
A catheter with an 80 mm treatment zone balloon was used however the photoactivating light fiber was only 60 mm in length. During activation it was noted that the light fiber was shifted distally in the catheter. This meant that the distal end of the artery was receiving photoactivation, however, the proximal end received little or no light. A fissure down the length of the artery was again observed.

Compound: NCCOCCOCCN1C(=O)c2cccc3c(NCCOCCOCCNc4ccc5c6c(cccc46)C(=O)N(CCOCCOCCN)C5=O)ccc(c23)C1=O [compound of formula (V)]
- degradation of dimer in powder form ([1]; periods exceeding two years of storage in a dessicator at −20° C.): no evidence of degradation
- stability of dimer solution (excellent stability for periods up to) ([1]; solution at pH 7.4): up to 18 months
- relative hardness of plaque ([2]; after a 5 minute soak): slight softening
- relative hardness of plaque ([2]; after an additional 90 minutes in solution): significantly softer and more pliable
- observation of tacking of intimal flaps ([3]; 447 nm 625 mW/cm 60 seconds): tacking of intimal flaps
- visual observation of plaque softness in treated region ([3]; 447 nm 625 mW/cm 60 seconds): apparent softened plaque in the treated region; also recorded: more malleable
- calcium crystals under microscope, treated vs untreated sections ([3]; light activation): less evidence of calcium crystals
- repair of fissure (artery; angioplasty, then composition, distal part with adequate photoactivation): there appeared to be a seam indicating repair
- fissure in opened artery (artery; composition 5 minutes, then angioplasty 25% overstretch, photoactivation 1800 mW 60 seconds): no fissure observed
